Values of other authors as cited in patent publication US20060183897A1, “Biaryl substituted triazoles as sodium channel blockers” (priority 2003, published 2006).

Assays:
[1] = system: patients with peripheral nerve injury; settings: continuous infusion; placebo-controlled
[2] = system: postherpetic neuralgia (PHN); settings: intravenous
[3] = system: rat models of peripheral nerve injury; settings: intravenous application; concentrations that do not affect general behavior and motor function

SMILES: CCN(CC)CC(=O)Nc1c(C)cccc1C [lidocaine]
- pain scores [1]: reduced pain scores
- pain intensity associated with postherpetic neuralgia [2]: reduced pain intensity
- ectopic activity in the injured nerve [3]: suppress the ectopic activity
- tactile allodynia [3]: reverse the tactile allodynia
